Activity calls are given as the source filed them.
How the values were obtained:
[1] = target: T1, Apoptotic protease-activating factor 1 (Homo sapiens, UniProt O14727); assay type: functional
T1 sequence (O14727 whole entry): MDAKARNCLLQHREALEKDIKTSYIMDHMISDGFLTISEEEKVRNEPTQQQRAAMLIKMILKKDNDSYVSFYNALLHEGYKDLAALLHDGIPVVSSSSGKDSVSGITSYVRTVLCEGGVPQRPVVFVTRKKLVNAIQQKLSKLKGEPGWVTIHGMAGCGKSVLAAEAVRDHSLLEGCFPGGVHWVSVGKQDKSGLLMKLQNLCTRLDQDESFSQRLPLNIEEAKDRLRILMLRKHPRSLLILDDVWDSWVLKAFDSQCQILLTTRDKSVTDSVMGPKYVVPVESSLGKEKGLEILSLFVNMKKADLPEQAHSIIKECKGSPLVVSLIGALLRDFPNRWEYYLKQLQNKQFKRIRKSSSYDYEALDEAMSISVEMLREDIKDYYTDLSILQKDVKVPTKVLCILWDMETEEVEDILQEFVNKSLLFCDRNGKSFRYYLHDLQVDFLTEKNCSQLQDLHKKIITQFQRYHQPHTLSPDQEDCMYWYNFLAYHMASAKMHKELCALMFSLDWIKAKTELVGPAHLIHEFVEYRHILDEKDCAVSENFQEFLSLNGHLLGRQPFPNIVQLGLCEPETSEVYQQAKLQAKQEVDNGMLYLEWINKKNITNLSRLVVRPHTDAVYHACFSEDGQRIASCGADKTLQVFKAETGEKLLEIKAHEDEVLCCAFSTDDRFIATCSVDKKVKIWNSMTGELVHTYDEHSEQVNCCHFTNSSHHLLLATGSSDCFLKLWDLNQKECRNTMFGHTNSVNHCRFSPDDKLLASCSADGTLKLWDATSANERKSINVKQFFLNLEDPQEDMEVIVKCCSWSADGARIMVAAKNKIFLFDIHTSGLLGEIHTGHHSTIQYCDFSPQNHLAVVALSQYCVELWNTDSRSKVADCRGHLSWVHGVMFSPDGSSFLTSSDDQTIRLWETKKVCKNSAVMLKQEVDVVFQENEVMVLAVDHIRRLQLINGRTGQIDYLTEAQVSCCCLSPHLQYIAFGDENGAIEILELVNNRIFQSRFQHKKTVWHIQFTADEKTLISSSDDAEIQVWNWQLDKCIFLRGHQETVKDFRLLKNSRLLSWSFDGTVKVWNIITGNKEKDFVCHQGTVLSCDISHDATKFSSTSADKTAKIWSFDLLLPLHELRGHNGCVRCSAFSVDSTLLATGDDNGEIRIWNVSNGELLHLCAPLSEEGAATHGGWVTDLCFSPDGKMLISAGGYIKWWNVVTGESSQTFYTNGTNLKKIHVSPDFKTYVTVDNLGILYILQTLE

[2] = target: T2, Replicative DNA helicase DnaB (Mycobacterium tuberculosis, UniProt P9WMR3); assay: DnaB intein splicing inhibitors, dose response, biochemical, cell-free fluorescence (AID 449749); assay type: functional
T2 sequence (P9WMR3 whole entry): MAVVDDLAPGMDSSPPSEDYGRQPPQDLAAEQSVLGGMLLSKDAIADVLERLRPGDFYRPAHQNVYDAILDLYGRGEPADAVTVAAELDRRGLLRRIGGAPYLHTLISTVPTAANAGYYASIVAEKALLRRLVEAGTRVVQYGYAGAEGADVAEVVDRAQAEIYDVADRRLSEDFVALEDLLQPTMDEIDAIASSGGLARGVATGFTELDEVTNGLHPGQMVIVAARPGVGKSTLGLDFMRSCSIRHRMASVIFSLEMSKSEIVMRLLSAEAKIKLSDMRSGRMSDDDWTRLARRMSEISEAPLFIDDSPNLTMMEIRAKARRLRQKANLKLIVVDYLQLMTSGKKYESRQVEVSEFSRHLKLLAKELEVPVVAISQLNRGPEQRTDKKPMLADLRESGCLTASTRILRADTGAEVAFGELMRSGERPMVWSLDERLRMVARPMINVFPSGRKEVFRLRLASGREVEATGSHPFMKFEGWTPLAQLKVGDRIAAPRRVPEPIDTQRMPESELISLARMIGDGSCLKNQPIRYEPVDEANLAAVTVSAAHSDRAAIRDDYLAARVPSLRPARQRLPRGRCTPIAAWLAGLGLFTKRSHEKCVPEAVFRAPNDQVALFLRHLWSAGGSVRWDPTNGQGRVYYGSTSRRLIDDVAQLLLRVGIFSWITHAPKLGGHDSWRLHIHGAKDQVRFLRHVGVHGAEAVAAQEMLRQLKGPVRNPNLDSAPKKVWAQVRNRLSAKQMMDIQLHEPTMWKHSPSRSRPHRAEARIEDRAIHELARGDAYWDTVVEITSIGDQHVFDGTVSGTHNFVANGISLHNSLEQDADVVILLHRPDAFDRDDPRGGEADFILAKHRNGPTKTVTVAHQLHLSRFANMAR

Protein RecA = target: T3, Protein RecA (Mycobacterium tuberculosis, UniProt P9WHJ3); assay: Fluorescence Cell-Free Homogeneous Dose Retest to Identify Inhibitors of RecA-Intein Splicing Activity. [Related pubchem assays (depositor defined):AID2097, AID2223, AID489010, AID492950]; assay type: functional
T3 sequence (P9WHJ3 whole entry): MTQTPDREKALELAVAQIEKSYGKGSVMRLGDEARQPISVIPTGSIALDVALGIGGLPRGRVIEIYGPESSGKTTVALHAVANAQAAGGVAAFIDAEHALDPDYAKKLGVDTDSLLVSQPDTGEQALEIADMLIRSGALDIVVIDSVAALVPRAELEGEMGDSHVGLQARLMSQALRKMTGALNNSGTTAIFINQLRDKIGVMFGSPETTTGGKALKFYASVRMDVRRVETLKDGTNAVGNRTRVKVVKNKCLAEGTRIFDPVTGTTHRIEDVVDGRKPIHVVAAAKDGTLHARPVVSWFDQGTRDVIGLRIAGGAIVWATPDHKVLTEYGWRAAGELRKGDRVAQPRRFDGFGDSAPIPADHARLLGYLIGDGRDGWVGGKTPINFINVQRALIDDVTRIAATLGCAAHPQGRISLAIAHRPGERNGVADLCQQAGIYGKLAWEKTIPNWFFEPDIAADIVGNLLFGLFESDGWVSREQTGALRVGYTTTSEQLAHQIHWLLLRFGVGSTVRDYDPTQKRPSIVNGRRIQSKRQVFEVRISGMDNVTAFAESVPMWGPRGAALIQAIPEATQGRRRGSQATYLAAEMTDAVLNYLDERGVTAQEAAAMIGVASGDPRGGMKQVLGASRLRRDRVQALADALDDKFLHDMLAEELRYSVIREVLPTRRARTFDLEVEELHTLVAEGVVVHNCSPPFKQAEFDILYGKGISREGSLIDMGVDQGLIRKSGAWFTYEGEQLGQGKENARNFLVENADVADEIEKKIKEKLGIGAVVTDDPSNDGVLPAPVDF

[3] = A375 melanoma cell cytotoxicity, dose response, counter-screen for MITF inhibitor project, CellTiter-Glo luminescence, dry powder, set 2 (AID 624489); assay type: functional, cell-based; settings: A-375;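 also: actives are compounds lowering A375 viability meaning general cytotoxicity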

O=C1C(Nc2ccccc2)=C(N2CCCCC2)C(=O)c2ccccc21
active: IC50 [1] 4.78 µM | AC50 [2] 68.5 µM | EC50 (Protein RecA) 2.21 µM | AC50 [3] 24.9 µM

Reference: ChEMBL document CHEMBL1201862, “PubChem BioAssay data set” (2004)
